Measurements: article PMC7496091, “Small‐Molecule Inhibitors Targeting Sterol 14α‐Demethylase (CYP51): Synthesis, Molecular Modelling and Evaluation Against Candida albicans” (Chemmedchem, 2020)
≈ marks a conversion by molar mass, not a printed value. Read-outs that look alike come from different tables or passages of the source.

Tests used:
C. albicans SC5314 = assay: MIC, CLSI M27-S4 broth dilution, strain SC5314; format: cell-based, Candida albicans; conditions: 48 hours
Procedure: The susceptibilities of the SC5314 and CA14C. albicans (azole sensitive) strains to all novel azole derivatives (5, 7 and 12) were determined (Table 3) using the standardized CLSI M27‐S4 broth dilution method.28
Susceptibility testing of C. albicans strains. […] Stock solutions of each agent were prepared in DMSO. Further dilutions were made in RPMI‐1640, and the final concentration of DMSO was 1 % (v/v). The final testing concentrations for all compounds ranged from 0.03–16 μg mL^−1.

C. albicans CA14 = assay: MIC, CLSI M27-S4 broth dilution, strain CA14; format: cell-based, Candida albicans; conditions: 48 hours
Procedure: Susceptibility testing of C. albicans strains. […] Stock solutions of each agent were prepared in DMSO. […] The final testing concentrations for all compounds ranged from 0.03–16 μg mL^−1.

CaCYP51 [1] = target: T1, CaCYP51 (Candida albicans, UniProt P10613); assay: biochemical
T1 construct: made in house; host or cells: Escherichia coli
Procedure: […]. […] […]. CYP51 reconstitution assays. IC50 values were determined for individual azole compounds18, 30 using lanosterol as substrate. Azoles were introduced using 2.5 μL of stock solutions in DMSO. CaCYP51 assays contained 1 μM CaCYP51 and 2 μM Homo sapiens cytochrome P450 reductase (HsCPR – UniProtKB accession number P16435) and were incubated for 20 min at 37 °C. HsCYP51 assays contained 0.25 μM Δ60HsCYP51 and 1 μM HsCPR and were incubated for 10 min at 37 °C. Each IC50 experiment was performed in duplicate.

CaCYP51 [2] = target: T1, CaCYP51; assay: biochemical; format: binding
Excerpt: […]. There were no signs of compound insolubility (visible or rising background absorbance) during the ligand titrations. […] […].
The rearranged Morrison equation34 gave the best fit to the ligand saturation curves against CaCYP51 (Figure 5) indicating the selected compounds bound tightly to the purified CaCYP51 protein in free solution. Likewise the rearranged Morrison equation34 gave the best fit for binding 5 d and 5 f to Δ60HsCYP51, thus indicating tight binding in free solution (Figure 5). […].
Recombinant CYP51 protein studies. […] All azole ligand binding determinations were performed in triplicate, except the binding of compound 12 c with Δ60HsCYP51 which was performed six times. CYP51 protein samples were diluted with 0.1 M Tris⋅HCl (pH 8.1) and 25 % (w/v) glycerol to the required concentration.
(§1) Dissociation constant (K d). The K d for each CYP51‐azole complex was determined by non‐linear regression (Levenberg‐Marquardt algorithm) using a rearrangement of the Morrison equation for tight ligand binding.34 Where ligand binding was weaker, the Michaelis‐Menten equation was used to fit the data (Figure S5). K d values were determined for each of the three replicate titrations per azole compound and then mean K d values and standard deviations calculated.

Δ60HsCYP51 [3] = target: T2, Δ60HsCYP51 (Homo sapiens, UniProt Q16850); assay: Azole ligand binding titration (type II difference spectra, Kd), Δ60HsCYP51
Procedure: Recombinant CYP51 protein studies.
as §1

Δ60HsCYP51 [4] = target: T2, Δ60HsCYP51; assay: CYP51 reconstitution assay (IC50), Δ60HsCYP51; format: biochemical
Procedure: CYP51 reconstitution assays. […] Azoles were introduced using 2.5 μL of stock solutions in DMSO. […] Each IC50 experiment was performed in duplicate.

[5] = Candida albicans, SC5314, 80 % reduction in turbidity
[6] = Candida albicans, SC5314, value in brackets
[7] = Candida albicans, CA14, 80 % reduction in turbidity
[8] = Candida albicans, CA14, value in brackets
[9] = 1 μM CaCYP51, lanosterol as substrate, curve-fitted, read-out: CaCYP51 IC50
[10] = 3 μM native CaCYP51, mean of three replicates ± SD, read-out: K d CaCYP51

T2 sequence (Q16850 61-509, stated change not applied): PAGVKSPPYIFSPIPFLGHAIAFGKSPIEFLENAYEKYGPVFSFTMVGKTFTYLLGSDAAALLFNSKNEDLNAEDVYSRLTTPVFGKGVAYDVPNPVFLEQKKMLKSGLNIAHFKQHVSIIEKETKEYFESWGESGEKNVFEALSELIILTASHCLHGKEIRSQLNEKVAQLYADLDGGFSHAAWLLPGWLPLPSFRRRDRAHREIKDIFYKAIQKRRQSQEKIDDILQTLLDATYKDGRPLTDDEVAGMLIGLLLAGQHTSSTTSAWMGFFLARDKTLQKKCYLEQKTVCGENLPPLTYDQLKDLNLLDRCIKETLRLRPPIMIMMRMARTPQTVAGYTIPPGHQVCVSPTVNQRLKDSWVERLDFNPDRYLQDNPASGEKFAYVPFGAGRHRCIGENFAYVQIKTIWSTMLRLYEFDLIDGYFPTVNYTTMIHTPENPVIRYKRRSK
T2 sequence (P16435 2-677, stated change not applied, further chain): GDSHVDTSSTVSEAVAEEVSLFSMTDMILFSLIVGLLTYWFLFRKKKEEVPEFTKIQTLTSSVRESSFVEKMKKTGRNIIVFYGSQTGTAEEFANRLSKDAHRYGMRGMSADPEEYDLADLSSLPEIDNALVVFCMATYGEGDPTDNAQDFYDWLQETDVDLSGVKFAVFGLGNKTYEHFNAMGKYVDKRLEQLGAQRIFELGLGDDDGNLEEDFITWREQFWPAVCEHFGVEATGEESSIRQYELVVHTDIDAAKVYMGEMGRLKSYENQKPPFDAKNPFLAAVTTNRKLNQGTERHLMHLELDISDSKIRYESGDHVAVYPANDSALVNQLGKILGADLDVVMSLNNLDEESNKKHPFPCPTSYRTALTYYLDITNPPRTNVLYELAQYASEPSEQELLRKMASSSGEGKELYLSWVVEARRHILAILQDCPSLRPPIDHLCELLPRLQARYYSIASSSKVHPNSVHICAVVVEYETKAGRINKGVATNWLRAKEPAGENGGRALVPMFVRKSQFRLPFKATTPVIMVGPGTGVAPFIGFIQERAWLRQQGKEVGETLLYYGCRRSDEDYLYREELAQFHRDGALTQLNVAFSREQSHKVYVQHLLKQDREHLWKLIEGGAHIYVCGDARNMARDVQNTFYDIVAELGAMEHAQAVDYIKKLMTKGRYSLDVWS
T1 sequence (P10613 whole entry): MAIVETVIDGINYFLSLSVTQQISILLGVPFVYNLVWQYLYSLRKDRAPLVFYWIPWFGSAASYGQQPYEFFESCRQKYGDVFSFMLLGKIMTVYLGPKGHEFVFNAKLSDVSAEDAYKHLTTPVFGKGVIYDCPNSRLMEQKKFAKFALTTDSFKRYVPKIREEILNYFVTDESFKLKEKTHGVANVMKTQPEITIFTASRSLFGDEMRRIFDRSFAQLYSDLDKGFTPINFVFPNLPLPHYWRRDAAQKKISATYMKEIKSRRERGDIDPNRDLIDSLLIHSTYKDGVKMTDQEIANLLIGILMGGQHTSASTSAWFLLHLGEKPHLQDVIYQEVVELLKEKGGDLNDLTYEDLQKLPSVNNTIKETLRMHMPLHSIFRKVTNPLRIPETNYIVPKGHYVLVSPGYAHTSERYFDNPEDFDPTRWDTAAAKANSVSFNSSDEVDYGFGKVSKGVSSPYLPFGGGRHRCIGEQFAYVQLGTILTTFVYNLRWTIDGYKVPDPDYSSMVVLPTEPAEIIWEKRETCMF

MIC (C. albicans SC5314; [5]) [µg/mL]	MIC (C. albicans SC5314; [6]) [µM]	MIC (C. albicans CA14; [7]) [µg/mL]	MIC (C. albicans CA14; [8]) [µM]	IC50 (CaCYP51 [1]; [9]) [nM]	Kd (CaCYP51 [2]; [10]) [nM]	melting point [°C]	SMILES	other results
8	24.7	4	12.4	1410	87 ± 27	100 to 102	O=C(NCc1ccc(F)cc1)C(Cn1ccnc1)c1ccccc1 (centres unmarked) [Compound 5 b, N‐(4‐Fluorobenzyl)‐3‐(1H‐imidazol‐1‐yl)‐2‐phenylpropanamide]	
4	10.7	4	10.7	2210	85 ± 19		O=C(NCc1ccc(C(F)(F)F)cc1)C(Cn1ccnc1)c1ccccc1 (centres unmarked) [Compound 5 h, 3‐(1H‐Imidazol‐1‐yl)‐2‐phenyl‐N‐(4‐(trifluoromethyl)benzyl)propanamide]	
				4320	167 ± 17		O=C(NCc1ccc(Cl)cc1)C(Cn1cncn1)c1ccccc1 (centres unmarked) [Compound 5 k, N‐(4‐Chlorobenzyl)‐2‐phenyl‐3‐(1H‐1,2,4‐triazol‐1‐yl)propanamide]	MIC SC5314 (C. albicans SC5314; 80 % reduction in turbidity): 8 µg/mL (≈ 23.5 µM); MIC (C. albicans SC5314; value in brackets): 23.5 µM; MIC CA14 (C. albicans CA14; 80 % reduction in turbidity): 8 µg/mL (≈ 23.5 µM); MIC (C. albicans CA14; value in brackets): 23.5 µM
						108 to 110	C=C(C(=O)NCc1ccc(Cl)cc1)c1ccc(Cl)cc1 [Compound 6 d, N‐(4‐Chlorobenzyl)‐2‐(4‐chlorophenyl)acrylamide]	
						66 to 68	C=C(C(=O)NCc1ccc(Cl)cc1Cl)c1ccccc1 [Compound 6 e, N‐(2,4‐Dichlorobenzyl)‐2‐phenylacrylamide]	
						136 to 138	C=C(C(=O)NCc1ccc(NC(=O)OC(C)(C)C)cc1)c1ccccc1 [Compound 6 l, tert‐Butyl (4‐((2‐phenylacrylamido)methyl)phenyl)carbamate]	
				200	55 ± 27		O=C(NCc1ccc(NS(=O)(=O)c2ccc(F)cc2)cc1)C(Cn1cncn1)c1ccccc1 (centres unmarked) [Compound 12 b, N‐(4‐((4‐Fluorophenyl)sulfonamido)benzyl)‐2‐phenyl‐3‐(1H‐1,2,4‐triazol‐1‐yl) propanamide]	MIC SC5314 (C. albicans SC5314; 80 % reduction in turbidity): 4 µg/mL (≈ 8.34 µM); MIC (C. albicans SC5314; value in brackets): 8.34 µM; MIC CA14 (C. albicans CA14; 80 % reduction in turbidity): 2 µg/mL (≈ 4.17 µM); MIC (C. albicans CA14; value in brackets): 4.17 µM
8	16.3	4	8.14	790	110 ± 22		COc1ccc(S(=O)(=O)Nc2ccc(CNC(=O)C(Cn3cncn3)c3ccccc3)cc2)cc1 (centres unmarked) [Compound 12 d, 2‐Phenyl‐N‐(4‐(4‐methoxyphenylsulfonamido)benzyl)‐3‐(1H‐1,2,4‐triazol‐1‐yl)propanamide]	

Further lines, the compound ahead of its results:

SMILES	MIC (C. albicans SC5314; [5]) [µg/mL]	MIC (C. albicans SC5314; [6]) [µM]	MIC (C. albicans CA14; [7]) [µg/mL]	MIC (C. albicans CA14; [8]) [µM]	IC50 (CaCYP51 [1]; [9]) [nM]	Kd (CaCYP51 [2]; [10]) [nM]	melting point [°C]	other results
O=C(NCc1ccc(Cl)cc1)C(Cn1ccnc1)c1ccccc1 (centres unmarked) [Compound 5 c, N‐(4‐Chlorobenzyl)‐3‐(1H‐imidazol‐1‐yl)‐2‐phenylpropanamide]					1010	60 ± 4		MIC SC5314 (C. albicans SC5314; 80 % reduction in turbidity): 8 µg/mL (≈ 23.5 µM); MIC (C. albicans SC5314; value in brackets): 23.5 µM; MIC CA14 (C. albicans CA14; 80 % reduction in turbidity): 4 µg/mL (≈ 11.8 µM); MIC (C. albicans CA14; value in brackets): 11.8 µM
O=C(NCc1ccc(Cl)cc1Cl)C(Cn1ccnc1)c1ccccc1 (centres unmarked) [Compound 5 e, N‐(2,4‐Dichlorobenzyl)‐3‐(1H‐imidazol‐1‐yl)‐2‐phenylpropanamide]	1	2.67	1	2.67	990	83 ± 26	55 to 57	
Cc1ccc(CNC(=O)C(Cn2ccnc2)c2ccccc2)cc1 (centres unmarked) [Compound 5 g, 3‐(1H‐Imidazol‐1‐yl)‐N‐(4‐methylbenzyl)‐2‐phenylpropanamide]	8	25.1	8	25.1	2450	144 ± 47	134 to 136	
COc1ccc(CNC(=O)C(Cn2ccnc2)c2ccccc2)cc1 (centres unmarked) [Compound 5 i, 3‐(1H‐Imidazol‐1‐yl)‐N‐(4‐methoxybenzyl)‐2‐phenylpropanamide]	8	23.9	8	23.9	910	55 ± 10	102 to 104	
COc1ccc(CNC(=O)C(Cn2ccnc2)c2ccccc2)cc1OC (centres unmarked) [Compound 5 j, N‐(3,4‐Dimethoxybenzyl)‐3‐(1H‐imidazol‐1‐yl)‐2‐phenylpropanamide]	> 16	> 43.8	> 16	> 43.8	6150			
C=C(C(=O)NCc1ccc(F)cc1)c1ccccc1 [Compound 6 b, N‐(4‐Fluorobenzyl)‐2‐phenylacrylamide]							108 to 110	
C=C(C(=O)NCc1ccc(Cl)cc1Cl)c1ccc(Cl)cc1 [Compound 6 f, 2‐(4‐Chlorophenyl)‐N‐(2,4‐dichlorobenzyl)acrylamide]							104 to 106	
C=C(C(=O)NCc1ccc(C)cc1)c1ccccc1 [Compound 6 g, N‐(4‐Methylbenzyl)‐2‐phenylacrylamide]							92 to 94	
C=C(C(=O)NCc1ccc(C(F)(F)F)cc1)c1ccccc1 [Compound 6 h, 2‐Phenyl‐N‐(4‐(trifluoromethyl)benzyl)acrylamide]							88 to 90	
C=C(C(=O)NCc1ccc(OC)cc1)c1ccccc1 [Compound 6 i, N‐(4‐Methoxybenzyl)‐2‐phenylacrylamide]							100 to 102	
C=C(C(=O)NCc1ccc(OC)c(OC)c1)c1ccccc1 [Compound 6 j, N‐(3,4‐Dimethoxybenzyl)‐2‐phenylacrylamide]							102 to 104	
Nc1ccc(CNC(=O)C(Cn2cncn2)c2ccccc2)cc1.O=C(O)C(F)(F)F (centres unmarked) [Compound 7]					1960			MIC SC5314 (C. albicans SC5314; 80 % reduction in turbidity): > 16 µg/mL; MIC (C. albicans SC5314; value in brackets): > 36.8 µM; MIC CA14 (C. albicans CA14; 80 % reduction in turbidity): > 16 µg/mL; MIC (C. albicans CA14; value in brackets): > 36.8 µM
O=C(NCc1ccc(NS(=O)(=O)c2ccccc2)cc1)C(Cn1cncn1)c1ccccc1 (centres unmarked) [Compound 12 a, 2‐Phenyl‐N‐(4‐(phenylsulfonamido)benzyl)‐3‐(1H‐1,2,4‐triazol‐1‐yl)propanamide]	4	8.67	4	8.67	540	115 ± 16	96 to 98	
C=C(C(=O)NCc1ccc(NS(=O)(=O)c2ccc(F)cc2)cc1)c1ccccc1 [Compound 13 b, N‐(4‐((4‐Fluorophenyl)sulfonamido)benzyl)‐2‐phenylacrylamide]							136 to 138	
C=C(C(=O)NCc1ccc(NS(=O)(=O)c2ccc(OC)cc2)cc1)c1ccccc1 [Compound 13 d, N‐(4‐((4‐Methoxyphenyl)sulfonamido)benzyl)‐2‐phenylacrylamide]							98 to 100	
OC(Cn1cncn1)(Cn1cncn1)c1ccc(F)cc1F [fluconazole, reference compound]	0.125	0.41	0.125	0.41				IC50 (CaCYP51 [1]): 310 nM; Ki (CaCYP51 [1]): 30 nM; Kd (CaCYP51 [2]): 41 ± 13 nM; Type of difference binding spectra with Δ60HsCYP51 (Δ60HsCYP51 [3]; titration with Δ60HsCYP51): type II difference binding spectra
CC[C@@H]([C@H](C)O)n1ncn(-c2ccc(N3CCN(c4ccc(OC[C@@H]5CO[C@@](Cn6cncn6)(c6ccc(F)cc6F)C5)cc4)CC3)cc2)c1=O [posaconazole, reference compound]						43 ± 11		IC50 (Δ60HsCYP51 [4]): 123000 nM; Kd (Δ60HsCYP51 [3]): 204 ± 63 nM
C[C@@H](c1ncncc1F)[C@](O)(Cn1cncn1)c1ccc(F)cc1F [voriconazole, reference compound]								IC50 (Δ60HsCYP51 [4]): 78000 nM
